From ChEMBL document CHEMBL1201862, “PubChem BioAssay data set” (2004)
One block for each molecule: values may come before it. Calls of active or inactive are those of the source.

Columns and labels:
fMet-Leu-Phe receptor = fMet-Leu-Phe receptor (Homo sapiens, UniProt P21462); experiment: formyl peptide receptor binders – dose response (AID 519); type: functional
[1] = biological target: T1, Sentrin-specific protease 6 (Homo sapiens, UniProt Q9GZR1); type: functional;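 further: Luminescence-based dose-response confirmatory assay of SENP6 inhibition, following up an ultra-high-throughput screen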
T1 sequence (Q9GZR1 whole entry): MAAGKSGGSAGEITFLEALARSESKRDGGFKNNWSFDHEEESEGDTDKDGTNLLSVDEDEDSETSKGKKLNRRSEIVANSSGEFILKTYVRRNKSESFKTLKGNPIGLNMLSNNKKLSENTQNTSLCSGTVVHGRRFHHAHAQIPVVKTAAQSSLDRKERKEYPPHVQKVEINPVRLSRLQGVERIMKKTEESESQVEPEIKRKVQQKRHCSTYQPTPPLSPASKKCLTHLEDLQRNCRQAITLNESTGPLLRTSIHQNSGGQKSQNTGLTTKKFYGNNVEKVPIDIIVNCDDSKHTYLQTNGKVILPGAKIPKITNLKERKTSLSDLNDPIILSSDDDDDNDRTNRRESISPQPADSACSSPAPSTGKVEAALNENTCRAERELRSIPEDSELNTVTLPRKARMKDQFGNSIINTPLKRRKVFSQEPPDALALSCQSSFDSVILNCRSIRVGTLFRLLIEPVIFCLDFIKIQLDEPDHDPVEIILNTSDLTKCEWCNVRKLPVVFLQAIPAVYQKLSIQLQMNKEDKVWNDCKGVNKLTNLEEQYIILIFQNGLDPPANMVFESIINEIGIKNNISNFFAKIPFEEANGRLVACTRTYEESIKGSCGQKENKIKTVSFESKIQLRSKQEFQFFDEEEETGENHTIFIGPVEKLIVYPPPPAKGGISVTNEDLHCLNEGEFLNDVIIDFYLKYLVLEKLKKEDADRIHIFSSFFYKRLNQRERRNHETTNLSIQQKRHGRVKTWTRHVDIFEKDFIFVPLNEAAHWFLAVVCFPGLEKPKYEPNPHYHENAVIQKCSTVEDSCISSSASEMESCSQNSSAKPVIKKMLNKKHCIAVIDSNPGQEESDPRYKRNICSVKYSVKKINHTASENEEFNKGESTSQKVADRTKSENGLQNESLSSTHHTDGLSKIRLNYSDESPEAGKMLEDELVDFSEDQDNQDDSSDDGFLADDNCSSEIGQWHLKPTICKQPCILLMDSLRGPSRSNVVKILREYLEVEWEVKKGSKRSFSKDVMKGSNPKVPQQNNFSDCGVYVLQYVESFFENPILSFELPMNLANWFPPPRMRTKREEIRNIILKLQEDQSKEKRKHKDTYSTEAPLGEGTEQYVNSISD

[2] = biological target: T2, Sentrin-specific protease 7 (Homo sapiens, UniProt Q9BQF6); type: functional;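 further: Luminescence-based dose-response confirmation of ultra-high-throughput screening hits, measuring inhibition of SENP7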
T2 sequence (Q9BQF6 whole entry): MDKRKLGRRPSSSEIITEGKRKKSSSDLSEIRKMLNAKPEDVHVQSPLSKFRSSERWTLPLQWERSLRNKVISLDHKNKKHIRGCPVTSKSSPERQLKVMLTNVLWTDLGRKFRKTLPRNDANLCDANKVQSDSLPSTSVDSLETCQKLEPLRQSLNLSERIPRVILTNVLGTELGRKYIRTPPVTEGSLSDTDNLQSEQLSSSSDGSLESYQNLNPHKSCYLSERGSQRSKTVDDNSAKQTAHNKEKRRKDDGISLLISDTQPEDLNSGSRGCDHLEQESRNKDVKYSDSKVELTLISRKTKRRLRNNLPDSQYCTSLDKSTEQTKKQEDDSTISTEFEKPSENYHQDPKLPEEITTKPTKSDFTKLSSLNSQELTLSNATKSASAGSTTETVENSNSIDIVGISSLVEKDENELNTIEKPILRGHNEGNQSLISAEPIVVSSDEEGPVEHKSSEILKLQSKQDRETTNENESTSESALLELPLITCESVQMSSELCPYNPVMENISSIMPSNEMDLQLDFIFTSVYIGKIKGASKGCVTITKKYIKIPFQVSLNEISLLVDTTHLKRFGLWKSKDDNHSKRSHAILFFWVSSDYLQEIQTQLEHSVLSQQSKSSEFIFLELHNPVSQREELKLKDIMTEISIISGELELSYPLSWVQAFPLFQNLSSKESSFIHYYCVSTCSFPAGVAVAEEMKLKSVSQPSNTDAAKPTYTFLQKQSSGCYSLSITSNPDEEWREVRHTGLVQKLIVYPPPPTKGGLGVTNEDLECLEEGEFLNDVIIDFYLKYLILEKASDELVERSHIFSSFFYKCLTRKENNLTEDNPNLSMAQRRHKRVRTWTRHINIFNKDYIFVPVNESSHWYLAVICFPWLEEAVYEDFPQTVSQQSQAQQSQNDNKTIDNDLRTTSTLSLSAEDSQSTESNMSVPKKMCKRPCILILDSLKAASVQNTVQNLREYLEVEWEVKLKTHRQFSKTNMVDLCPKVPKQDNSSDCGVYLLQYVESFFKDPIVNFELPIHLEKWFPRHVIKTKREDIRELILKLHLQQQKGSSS

Caspase-3 = biological target: T3, Caspase-3 (Homo sapiens, UniProt P42574); type: functional;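 further: Dose-response selectivity test against caspase-3 for candidate inhibitors of sentrin-specific proteases (SENPs)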
T3 sequence (P42574 whole entry): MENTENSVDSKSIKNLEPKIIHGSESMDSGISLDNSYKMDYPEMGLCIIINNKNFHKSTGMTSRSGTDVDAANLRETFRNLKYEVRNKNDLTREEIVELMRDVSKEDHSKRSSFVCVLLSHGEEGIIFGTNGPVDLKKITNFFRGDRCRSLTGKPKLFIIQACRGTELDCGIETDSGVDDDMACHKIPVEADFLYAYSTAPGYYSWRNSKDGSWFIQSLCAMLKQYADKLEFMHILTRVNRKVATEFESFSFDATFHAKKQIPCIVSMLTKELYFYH

[3] = biological target: T4, Sentrin-specific protease 8 (Homo sapiens, UniProt Q96LD8); type: functional;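 further: luminescence read-out of SENP8 inhibition, dose-response confirmation following an ultra-high-throughput screen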
T4 sequence (Q96LD8 whole entry): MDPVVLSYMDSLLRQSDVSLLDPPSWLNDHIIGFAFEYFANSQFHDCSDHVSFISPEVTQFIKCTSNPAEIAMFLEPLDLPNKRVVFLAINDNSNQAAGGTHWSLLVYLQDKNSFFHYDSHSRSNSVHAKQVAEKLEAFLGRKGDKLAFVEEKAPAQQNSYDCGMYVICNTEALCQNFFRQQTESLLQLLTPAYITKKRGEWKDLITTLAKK

[4] = biological target: T5, Oxysterols receptor LXR-beta (Homo sapiens, UniProt P55055); type: functional, cell-based;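 further: agonist activity at LXR measured by a cell-based luminescence readout across a dose range, run as a counterscreen for daf-12 agonists; HEK293 cells with Gal4-LXR fusion and GAL4-driven luciferase reporter; potency for activation of Gal4-LXR reporter so compounds are agonists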
T5 sequence (P55055 whole entry): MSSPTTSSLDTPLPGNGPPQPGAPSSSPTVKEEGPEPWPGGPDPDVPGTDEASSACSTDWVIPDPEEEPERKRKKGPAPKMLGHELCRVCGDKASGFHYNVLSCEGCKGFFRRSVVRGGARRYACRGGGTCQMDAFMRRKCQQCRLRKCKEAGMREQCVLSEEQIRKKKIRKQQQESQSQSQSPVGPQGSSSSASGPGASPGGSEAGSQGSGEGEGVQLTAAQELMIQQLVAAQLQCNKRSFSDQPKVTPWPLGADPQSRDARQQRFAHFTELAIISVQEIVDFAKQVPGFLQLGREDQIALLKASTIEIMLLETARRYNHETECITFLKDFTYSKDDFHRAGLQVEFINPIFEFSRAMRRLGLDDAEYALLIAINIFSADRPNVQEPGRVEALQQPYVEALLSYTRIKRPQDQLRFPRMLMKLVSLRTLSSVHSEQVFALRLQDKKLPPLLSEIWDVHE

Caspase-7 = Caspase-7 (Homo sapiens, UniProt P55210); experiment: caspase-7 enzyme inhibition, selectivity check – biochemical, DEVD-R110 fluorescence, cherry-pick, selectivity assay for caspase-6 inhibitor project, dose response (AID 743295); type: functional
[5] = biological target: T6, Histone-lysine N-methyltransferase NSD2 (Homo sapiens, UniProt O96028); type: biochemical
T6 sequence (O96028 whole entry): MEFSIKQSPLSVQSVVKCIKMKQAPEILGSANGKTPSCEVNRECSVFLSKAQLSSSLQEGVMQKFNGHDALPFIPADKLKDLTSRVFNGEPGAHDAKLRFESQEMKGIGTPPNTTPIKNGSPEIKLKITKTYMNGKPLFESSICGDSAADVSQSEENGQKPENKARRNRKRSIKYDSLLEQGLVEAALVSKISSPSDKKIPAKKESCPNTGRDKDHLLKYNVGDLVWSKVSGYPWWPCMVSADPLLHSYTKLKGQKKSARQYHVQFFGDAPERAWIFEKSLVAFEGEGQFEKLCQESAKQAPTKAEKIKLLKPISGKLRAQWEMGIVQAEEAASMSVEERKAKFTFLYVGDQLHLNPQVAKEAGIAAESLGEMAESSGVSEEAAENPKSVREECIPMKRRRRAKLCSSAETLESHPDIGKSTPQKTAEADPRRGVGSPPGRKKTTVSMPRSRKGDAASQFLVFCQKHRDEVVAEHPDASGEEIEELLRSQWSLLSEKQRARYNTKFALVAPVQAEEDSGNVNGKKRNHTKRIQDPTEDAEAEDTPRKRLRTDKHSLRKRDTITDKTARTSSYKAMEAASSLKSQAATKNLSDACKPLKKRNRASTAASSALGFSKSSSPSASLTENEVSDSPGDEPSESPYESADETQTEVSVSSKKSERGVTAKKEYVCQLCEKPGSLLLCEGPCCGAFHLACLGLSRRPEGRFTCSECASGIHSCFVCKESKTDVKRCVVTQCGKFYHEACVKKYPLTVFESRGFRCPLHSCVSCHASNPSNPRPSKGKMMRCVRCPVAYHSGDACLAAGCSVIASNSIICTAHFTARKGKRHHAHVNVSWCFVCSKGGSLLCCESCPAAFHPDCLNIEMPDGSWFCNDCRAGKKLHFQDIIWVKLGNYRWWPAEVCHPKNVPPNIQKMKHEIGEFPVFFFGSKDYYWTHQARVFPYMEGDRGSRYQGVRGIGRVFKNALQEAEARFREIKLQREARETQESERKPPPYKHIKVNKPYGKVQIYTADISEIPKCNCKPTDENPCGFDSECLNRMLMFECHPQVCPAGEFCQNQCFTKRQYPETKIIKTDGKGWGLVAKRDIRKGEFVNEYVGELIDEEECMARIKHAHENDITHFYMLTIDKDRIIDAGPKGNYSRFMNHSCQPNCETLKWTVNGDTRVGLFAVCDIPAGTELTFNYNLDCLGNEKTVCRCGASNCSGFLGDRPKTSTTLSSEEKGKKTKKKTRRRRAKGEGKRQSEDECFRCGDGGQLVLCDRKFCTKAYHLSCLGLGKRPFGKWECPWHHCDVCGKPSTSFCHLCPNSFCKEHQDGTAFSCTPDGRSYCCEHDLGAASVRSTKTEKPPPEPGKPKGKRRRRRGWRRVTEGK

Caspase-6 = biological target: T7, Caspase-6 (Homo sapiens, UniProt P55212); experiment: inhibition of CASP6 peptide cleavage – biochemical, VEID-R110 fluorescence, cherry-pick, dose response (AID 720632)
T7 sequence (P55212 whole entry): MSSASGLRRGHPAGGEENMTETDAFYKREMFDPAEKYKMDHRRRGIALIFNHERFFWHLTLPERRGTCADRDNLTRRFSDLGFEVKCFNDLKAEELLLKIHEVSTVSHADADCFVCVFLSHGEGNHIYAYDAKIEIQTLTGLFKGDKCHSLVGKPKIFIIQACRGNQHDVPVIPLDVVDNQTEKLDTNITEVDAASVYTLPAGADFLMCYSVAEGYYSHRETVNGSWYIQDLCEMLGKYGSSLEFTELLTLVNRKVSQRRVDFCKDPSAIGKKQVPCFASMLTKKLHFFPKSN

[6] = biological target: Glucose-6-phosphate 1-dehydrogenase (Homo sapiens, UniProt P11413); experiment: inhibition of Homo sapiens G6PD, dose series – biochemical, fluorescence, selectivity assay for P. falciparum G6PD inhibitor project, dose response (AID 504792); type: functional
Protein skinhead-1 = biological target: T8, Protein skinhead-1 (Caenorhabditis elegans, UniProt P34707); type: functional
T8 sequence (P34707 whole entry): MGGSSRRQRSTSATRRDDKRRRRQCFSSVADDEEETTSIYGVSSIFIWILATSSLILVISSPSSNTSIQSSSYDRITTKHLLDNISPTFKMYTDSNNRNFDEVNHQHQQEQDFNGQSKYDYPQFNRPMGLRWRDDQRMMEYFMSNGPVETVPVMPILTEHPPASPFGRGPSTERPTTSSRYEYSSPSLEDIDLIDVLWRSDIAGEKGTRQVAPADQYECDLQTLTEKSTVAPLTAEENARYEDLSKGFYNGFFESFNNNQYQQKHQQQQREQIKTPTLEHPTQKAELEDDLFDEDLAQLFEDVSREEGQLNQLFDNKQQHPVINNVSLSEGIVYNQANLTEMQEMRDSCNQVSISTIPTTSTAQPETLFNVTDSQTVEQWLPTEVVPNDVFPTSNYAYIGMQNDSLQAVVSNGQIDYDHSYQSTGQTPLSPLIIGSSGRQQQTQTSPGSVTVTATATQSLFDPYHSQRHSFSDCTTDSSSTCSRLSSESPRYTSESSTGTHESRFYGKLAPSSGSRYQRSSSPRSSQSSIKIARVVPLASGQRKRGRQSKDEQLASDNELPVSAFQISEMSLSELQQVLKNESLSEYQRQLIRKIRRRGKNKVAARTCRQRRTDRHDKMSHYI

[7] = biological target: Voltage-gated inwardly rectifying potassium channel KCNH2 (Homo sapiens, UniProt Q12809); conditions: Potency;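 further: confirmatory quantitative high-throughput screen measuring inhibition of hERG channel activity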
Genome polyprotein = Genome polyprotein (dengue virus type 2, UniProt P29990); experiment: flavivirus cap methylation enzyme inhibition – biochemical, confirmation dose response, primary screen (AID 588689); type: functional
Sequence of Genome polyprotein (P29990 2492-3391 limits assumed): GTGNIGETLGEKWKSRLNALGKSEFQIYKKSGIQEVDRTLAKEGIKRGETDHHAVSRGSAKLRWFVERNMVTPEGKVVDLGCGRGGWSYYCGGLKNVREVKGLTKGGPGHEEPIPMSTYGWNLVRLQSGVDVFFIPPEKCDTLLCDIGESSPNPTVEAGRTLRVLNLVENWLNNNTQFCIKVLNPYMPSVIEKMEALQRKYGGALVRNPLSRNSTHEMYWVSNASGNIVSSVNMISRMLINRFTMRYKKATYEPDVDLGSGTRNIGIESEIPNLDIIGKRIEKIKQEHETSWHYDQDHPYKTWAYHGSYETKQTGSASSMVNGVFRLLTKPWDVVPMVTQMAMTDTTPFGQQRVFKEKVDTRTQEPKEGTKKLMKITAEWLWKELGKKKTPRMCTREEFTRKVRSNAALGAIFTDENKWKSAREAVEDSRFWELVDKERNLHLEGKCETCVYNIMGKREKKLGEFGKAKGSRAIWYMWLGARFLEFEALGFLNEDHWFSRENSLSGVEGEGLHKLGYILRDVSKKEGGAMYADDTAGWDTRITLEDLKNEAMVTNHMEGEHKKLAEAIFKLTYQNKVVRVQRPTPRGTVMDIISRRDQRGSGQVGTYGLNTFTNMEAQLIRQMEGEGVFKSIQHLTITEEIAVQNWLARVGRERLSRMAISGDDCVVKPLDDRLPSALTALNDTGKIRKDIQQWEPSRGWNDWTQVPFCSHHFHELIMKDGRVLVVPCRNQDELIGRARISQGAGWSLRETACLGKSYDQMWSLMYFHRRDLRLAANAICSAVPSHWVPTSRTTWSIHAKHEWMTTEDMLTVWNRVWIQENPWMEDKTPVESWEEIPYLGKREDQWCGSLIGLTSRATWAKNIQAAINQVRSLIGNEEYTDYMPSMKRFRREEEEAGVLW

Sequence of fMet-Leu-Phe receptor (P21462 whole entry): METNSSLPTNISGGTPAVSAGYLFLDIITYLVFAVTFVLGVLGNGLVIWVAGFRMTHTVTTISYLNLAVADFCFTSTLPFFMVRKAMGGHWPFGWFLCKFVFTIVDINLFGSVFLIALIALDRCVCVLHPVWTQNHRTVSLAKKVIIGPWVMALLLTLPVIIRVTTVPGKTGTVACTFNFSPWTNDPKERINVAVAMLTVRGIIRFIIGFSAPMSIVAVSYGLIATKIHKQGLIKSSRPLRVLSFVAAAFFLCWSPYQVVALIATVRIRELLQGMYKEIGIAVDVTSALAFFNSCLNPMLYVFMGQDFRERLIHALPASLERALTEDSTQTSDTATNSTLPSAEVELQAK
Sequence of Voltage-gated inwardly rectifying potassium channel KCNH2 (Q12809 whole entry): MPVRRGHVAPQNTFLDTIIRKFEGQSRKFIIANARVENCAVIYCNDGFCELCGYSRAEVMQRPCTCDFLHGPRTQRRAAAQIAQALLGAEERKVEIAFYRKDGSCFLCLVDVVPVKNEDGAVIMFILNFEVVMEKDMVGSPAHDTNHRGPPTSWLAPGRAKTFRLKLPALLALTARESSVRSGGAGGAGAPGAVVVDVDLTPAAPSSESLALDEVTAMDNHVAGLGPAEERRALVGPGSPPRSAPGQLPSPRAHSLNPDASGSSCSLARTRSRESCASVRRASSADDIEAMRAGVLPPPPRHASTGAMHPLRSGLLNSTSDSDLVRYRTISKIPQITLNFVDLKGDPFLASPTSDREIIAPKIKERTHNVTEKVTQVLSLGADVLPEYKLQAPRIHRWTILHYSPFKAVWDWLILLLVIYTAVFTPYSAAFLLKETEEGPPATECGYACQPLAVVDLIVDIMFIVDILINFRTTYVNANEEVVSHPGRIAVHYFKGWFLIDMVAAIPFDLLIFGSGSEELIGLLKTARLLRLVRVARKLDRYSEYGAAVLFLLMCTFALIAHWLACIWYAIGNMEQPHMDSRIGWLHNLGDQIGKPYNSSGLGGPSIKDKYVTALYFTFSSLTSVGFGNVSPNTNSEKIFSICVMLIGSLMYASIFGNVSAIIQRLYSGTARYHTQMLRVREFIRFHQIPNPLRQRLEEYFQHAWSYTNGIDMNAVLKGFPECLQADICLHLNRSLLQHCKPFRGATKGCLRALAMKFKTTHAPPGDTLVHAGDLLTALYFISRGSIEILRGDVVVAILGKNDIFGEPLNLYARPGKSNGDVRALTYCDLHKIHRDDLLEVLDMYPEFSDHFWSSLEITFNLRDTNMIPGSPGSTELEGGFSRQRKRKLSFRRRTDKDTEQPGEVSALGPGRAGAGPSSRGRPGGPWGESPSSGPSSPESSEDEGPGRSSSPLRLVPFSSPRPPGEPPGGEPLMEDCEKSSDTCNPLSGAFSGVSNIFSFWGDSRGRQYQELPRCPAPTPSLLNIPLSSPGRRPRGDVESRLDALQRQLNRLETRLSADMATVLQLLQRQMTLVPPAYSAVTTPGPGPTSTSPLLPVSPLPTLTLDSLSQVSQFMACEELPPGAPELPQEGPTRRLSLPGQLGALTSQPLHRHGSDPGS
Sequence of Glucose-6-phosphate 1-dehydrogenase (P11413 whole entry): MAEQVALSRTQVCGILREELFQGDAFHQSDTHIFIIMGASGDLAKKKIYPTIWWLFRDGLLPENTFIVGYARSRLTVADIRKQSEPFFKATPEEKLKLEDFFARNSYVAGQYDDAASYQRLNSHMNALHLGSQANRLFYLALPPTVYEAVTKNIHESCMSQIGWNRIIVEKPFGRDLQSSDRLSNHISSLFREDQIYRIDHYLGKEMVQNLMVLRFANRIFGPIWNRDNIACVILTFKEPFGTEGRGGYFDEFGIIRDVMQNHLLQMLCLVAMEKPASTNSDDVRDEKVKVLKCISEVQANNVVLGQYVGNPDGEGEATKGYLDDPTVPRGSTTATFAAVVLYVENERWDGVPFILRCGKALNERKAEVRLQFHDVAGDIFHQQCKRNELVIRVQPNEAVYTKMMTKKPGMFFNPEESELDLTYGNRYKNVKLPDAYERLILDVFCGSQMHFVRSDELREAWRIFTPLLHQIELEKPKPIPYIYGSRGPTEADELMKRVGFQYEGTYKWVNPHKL
Sequence of Caspase-7 (P55210 24-198 limits assumed): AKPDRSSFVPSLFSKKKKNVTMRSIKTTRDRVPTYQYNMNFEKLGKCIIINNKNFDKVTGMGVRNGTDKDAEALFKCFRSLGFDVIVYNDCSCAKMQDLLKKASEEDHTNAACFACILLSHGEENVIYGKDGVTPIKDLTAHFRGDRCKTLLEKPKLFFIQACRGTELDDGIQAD
Sequence of Caspase-7 (P55210 207-303 limits assumed): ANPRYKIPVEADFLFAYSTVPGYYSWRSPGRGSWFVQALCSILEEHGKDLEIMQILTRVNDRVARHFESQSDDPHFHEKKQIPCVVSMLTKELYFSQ

- Ki (fMet-Leu-Phe receptor): > 66.7 µM (inactive)
SMILES: Cc1ccc(C(=O)C2=C(O)C(=O)N(CC(C)O)C2c2ccc(N(C)C)cc2)cc1 (centres undefined)

- Ki (fMet-Leu-Phe receptor): > 66.7 µM (inactive)
SMILES: C=CCOc1cccc(C2C(C(=O)c3ccco3)=C(O)C(=O)N2CCN2CCOCC2)c1 (centres undefined)

- IC50 [1]: 18.7 µM (active)
- IC50 [2]: 5.6 µM (active)
- IC50 (Caspase-3): 18.5 µM (active)
- EC50 [4]: > 67.5 µM (inactive)
SMILES: Cc1ccc(/C=N/N=C/c2ccc(C)s2)s1
- IC50 [3]: 21.9 µM (active)

SMILES: Oc1cc2c(cc1O)[C@H]1c3ccc(O)c(O)c3OC[C@@]1(O)C2
- AC50 (Caspase-7): 68.5 µM (active)
- AC50 [5]: 1.53 µM (active)
- AC50 (Caspase-6): 3.95 µM (active)
- IC50 [6]: 67.6 µM (inactive)
- IC50 (Protein skinhead-1): > 100 µM (inactive)
- AC50 [7]: 22.4 µM (inconclusive)
- IC50 (Genome polyprotein): 22.5 µM (active)
